Laboratory results reported in PubChem BioAssay (NCI).
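All cell lines were grown in 96-well plates and treated with compound for 48 hours. Here, GI50 denotes the concentration required for 50% inhibition of growth. TGI: total growth inhibition.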

What was measured:
Test in all cases: inhibition of tumour cell growth, NCI panel, 48 h
SNB-19 CNS = tested on: SNB-19 CNS
OVCAR-5 ovarian = tested on: OVCAR-5 ovarian
HOP-92 NSCLC = tested on: HOP-92 NSCLC
HCT-116 colon = tested on: HCT-116 colon
UO-31 renal = tested on: UO-31 renal
MOLT-4 leukemia = tested on: MOLT-4 leukemia
M14 melanoma = tested on: M14 melanoma
MALME-3M melanoma = tested on: MALME-3M melanoma
PC-3 prostate = tested on: PC-3 prostate
COLO 205 colon = tested on: COLO 205 colon
DU-145 prostate = tested on: DU-145 prostate
CCRF-CEM leukemia = tested on: CCRF-CEM leukemia
MDA-MB-231 breast = tested on: MDA-MB-231 breast
SK-MEL-28 melanoma = tested on: SK-MEL-28 melanoma
SK-MEL-5 melanoma = tested on: SK-MEL-5 melanoma
SF-539 CNS = tested on: SF-539 CNS
A549 NSCLC = tested on: A549 NSCLC
SR leukemia = tested on: SR leukemia
MDA-MB-435 = tested on: MDA-MB-435
A498 renal = tested on: A498 renal
HS 578T breast = tested on: HS 578T breast
SNB-75 CNS = tested on: SNB-75 CNS
LOX IMVI melanoma = tested on: LOX IMVI melanoma
ACHN renal = tested on: ACHN renal
IGROV1 ovarian = tested on: IGROV1 ovarian
OVCAR-4 ovarian = tested on: OVCAR-4 ovarian
OVCAR-3 ovarian = tested on: OVCAR-3 ovarian
UACC-62 melanoma = tested on: UACC-62 melanoma
TK-10 renal = tested on: TK-10 renal

CN(C)CCCN1c2ccccc2CCc2ccc(Cl)cc21
GI50 (SNB-19 CNS): 6.42 µM
TGI (SNB-19 CNS): 21.5 µM
GI50 (OVCAR-5 ovarian): 4.07 µM
TGI (OVCAR-5 ovarian): 16.2 µM
GI50 (HOP-92 NSCLC): 1440 nM
TGI (HOP-92 NSCLC): 6.8 µM
GI50 (HCT-116 colon): 3.53 µM
TGI (HCT-116 colon): 12.3 µM
GI50 (UO-31 renal): 5.17 µM
TGI (UO-31 renal): 19.7 µM
GI50 (MOLT-4 leukemia): 3.07 µM
TGI (MOLT-4 leukemia): 11.1 µM
GI50 (M14 melanoma): 1830 nM
TGI (M14 melanoma): 3.35 µM
GI50 (MALME-3M melanoma): 2030 nM
TGI (MALME-3M melanoma): 3.99 µM
GI50 (PC-3 prostate): 2980 nM
TGI (PC-3 prostate): 15.4 µM
GI50 (COLO 205 colon): 1910 nM
TGI (COLO 205 colon): 3.53 µM
GI50 (DU-145 prostate): 10.8 µM
TGI (DU-145 prostate): 23.1 µM
GI50 (CCRF-CEM leukemia): 3.07 µM
TGI (CCRF-CEM leukemia): 12 µM
GI50 (MDA-MB-231 breast): 3.06 µM
TGI (MDA-MB-231 breast): 12 µM
GI50 (SK-MEL-28 melanoma): 1610 nM
TGI (SK-MEL-28 melanoma): 3.07 µM
GI50 (SK-MEL-5 melanoma): 1540 nM
TGI (SK-MEL-5 melanoma): 2900 nM
GI50 (SF-539 CNS): 5.59 µM
TGI (SF-539 CNS): 17.7 µM
GI50 (A549 NSCLC): 9.27 µM
TGI (A549 NSCLC): 23.2 µM
GI50 (SR leukemia): 2080 nM
TGI (SR leukemia): 5.11 µM
GI50 (MDA-MB-435): 2350 nM
TGI (MDA-MB-435): 6.91 µM
GI50 (A498 renal): 5.47 µM
TGI (A498 renal): 19.4 µM
GI50 (HS 578T breast): 10.6 µM
TGI (HS 578T breast): 77.1 µM
GI50 (SNB-75 CNS): 1700 nM
TGI (SNB-75 CNS): 8.77 µM
GI50 (LOX IMVI melanoma): 2310 nM
TGI (LOX IMVI melanoma): 8.16 µM
GI50 (ACHN renal): 3.81 µM
TGI (ACHN renal): 13.5 µM
GI50 (IGROV1 ovarian): 7.09 µM
TGI (IGROV1 ovarian): 22 µM
GI50 (OVCAR-4 ovarian): 3.64 µM
TGI (OVCAR-4 ovarian): 16.4 µM
GI50 (OVCAR-3 ovarian): 9.17 µM
TGI (OVCAR-3 ovarian): 23.1 µM
GI50 (UACC-62 melanoma): 1610 nM
TGI (UACC-62 melanoma): 3.31 µM
GI50 (TK-10 renal): 13.3 µM
